Data: ChEMBL document CHEMBL1153714, “Isolation and characterization of tirandamycins from a marine-derived Streptomyces sp” (2009)
In brackets after ≈: the same amount, converted by molar mass.

System: Enterococcus faecalis
Assay: Antibacterial activity against vancomycin-resistant Enterococcus faecalis after 16 hrs by microtiter plate assay
Type: functional

Row | SMILES | MIC
1 | CC(/C=C/C(O)=C1/C(=O)CNC1=O)=C\[C@@H](C)[C@H]1O[C@@]2(C)O[C@H](C(=O)[C@H]3O[C@]32C)[C@@H]1C [TIRANDAMYCIN A] | 2.25 µM (≈ 0.939 µg/mL)
2 | CC(/C=C/C(O)=C1/C(=O)CNC1=O)=C\[C@@H](C)[C@H]1O[C@@]2(C)O[C@H](C(=O)[C@H]3O[C@]32CO)[C@@H]1C [TIRANDAMYCIN B] | 100 µM (≈ 43.3 µg/mL)
3 | CC1=CC[C@H]2O[C@]1(C)O[C@H]([C@H](C)/C=C(C)/C=C/C(O)=C1/C(=O)CNC1=O)[C@H]2C [TIRANDAMYCIN C] | 110 µM (≈ 42.6 µg/mL)
4 | CC1=CC(=O)[C@H]2O[C@]1(C)O[C@H]([C@H](C)/C=C(C)/C=C/C(O)=C1/C(=O)CNC1=O)[C@H]2C [TIRANDAMYCIN D] | > 9 µM
